Consider four molecules from patent publication US20140322242A1, “MATERIALS AND METHODS FOR THE PREVENTION AND TREATMENT OF CANCER” (Icahn School of Medicine at Mount Sinai, priority 2010, published 2014).

The test system of data set [1] is PC-3luc cells. Kind of data set: Xenogeneic orthotopic PC-3luc prostate tumor model in nude mice (bioluminescence, immunofluorescence). It counts as in vivo, Balb/c nu/nu mice. Conditions: for distant metastases / carbachol-induced lymph node invasion: antagonist in combination with carbachol. The method, then: The microenvironment of a developing tumor is important in cancer development and metastasis. A xenogeneic orthotopic model of prostate cancer was established to provide a minimally disruptive microenvironment for this cancer in live mice.
In vivo and ex vivo bioluminescence imaging was performed and analyzed using an IVIS imaging system 200 series (Xenogen, Caliper Life Sciences, Hopkinton, Mass.). Bioluminescent signal was induced by i.p. injection of D-luciferin (150 mg/kg in PBS) 8 minutes prior to in vivo imaging. For ex vivo imaging, D-luciferin (300 mg/kg) was injected 7 minutes prior to necropsy. Organs of interest were immersed in a solution of D-luciferin at 150 mg/ml.
(§1) Upon sacrifice, mouse prostate tissues were immersed in OCT medium (Tissue Teck®). Five-micrometer frozen sections were stained with hematoxylin-eosin (H&E). For immunofluorescence, unstained prostate sections were fixed with acetone or methanol. For staining of nerves, fixed sections were incubated in H2O2 to quench endogenous peroxidase and non-specific binding was blocked with goat serum in bovine serum albumin (BSA) solution and the avidin/biotin blocking kit (Vector Laboratories, Burlingame, Calif.). Sections were incubated with a rabbit anti-TH antibody (Millipore, Billerica, Mass.), or anti-VAChT antibody (Phoenix Pharmaceuticals, Inc., Burlingame, Calif.), or anti-NF-L antibody (Millipore), or anti-NF-H antibody (Abcam, Cambridge, Mass.) and then with a secondary biotinylated goat anti-rabbit antibody (Vector Laboratories). Signal was amplified using the Vectastain Elite ABC Kit (Vector Laboratories) and visualized using the Tyramide Signal Amplification kit for TRITC (PerkinElmer, Boston, Mass.).
(§2) For proliferative cell quantification, sections were incubated with a rabbit polyclonal anti-Ki67 (Abcam) and then Alexafluor 568-conjugated goat anti-rabbit antibody (Molecular Probes, Carlsbad, Calif.).
(§3) Human tumors were induced by orthotopic surgical implantations of 1×10^5 PC-3luc cells into six- to eight-week-old Balb/c nu/nu mice. Ten days after cell injection (day 0), the animals were randomized into the different groups and received the appropriate drugs, as indicated. 6OHDA or vehicle was injected at day 0 (100 mg/kg) and day 2 (250 mg/kg), and human recombinant G-CSF treatment was begun on day 4 (Amgen, 250 μg/kg/day, every 12 hours, 8 divided doses, i.p., in 5% dextrose). A second cycle was administered eight weeks after graft and animals were sacrificed three weeks after the last injection of G-CSF (i.e., 11 weeks after graft). In other experiments, 2×10^5 PC-3luc cells were orthotopically injected into nu/nu Adrβ2^tm1Bkk/J+/+ Adrβ3^tm1Lowl/J+/+, nu/nu Adrβ2^tm1Bkk/J−/−, nu/nu Adrβ3^tm1Lowl/J−/− and nu/nu Adrβ2^tm1Bkk/J−/− Adrβ3^tm1Lowl/J−/−. In selected experiments, 2×10^6 LNCaP-luc cells were injected in nu/nu Adrβ2^tm1Bkk/J+/+ Adrβ3^tm1Lowl/J+/+ and nu/nu Adrβ2^tm1Bkk/J−/− Adrβ3^tm1Lowl/J−/− mice. For the transgenic model, one-, two- or five-month-old c-Myc mice were injected with 6OHDA or surgically sympathectomized according to protocols described above and sacrificed 30 days later.
A second cycle was administered at week four and mice were sacrificed one week later (five weeks after graft). For cholinergic experiments using the nu/nu Chrm1^tm1Stl+/+ and nu/nu Chrm1^tm1Stl−/− animals, mice were sacrificed at week six post-graft. For the survival study, grafted mice were treated as described hereinabove from week 4, every two weeks for up to 25 weeks or until death. Disease progression was monitored by bioluminescence scanner. […] One week later, mice received a second round of treatment and were then sacrificed at month four.

Data set [2] concerns PC-3luc cells. Nature of the data set: PC-3luc cell proliferation / cytotoxicity in vitro (MTT). Type of data set: cell-based, human. The method, then: A cell proliferation assay was performed on human PC-3 prostate tumor cells after 96 hours of treatment by G-CSF at three different concentrations by comparison with human leukemic cells (HL-60 and U937). Cell proliferation was quantified by a cell viability assay using MTT (3-[4,5-dimethylthiazole-2-yl]-2,5-diphenyltetrazolium bromide (Sigma). The percentage of viable cells was calculated by comparing the optical density (OD) of the treated samples with those incubated with vehicle. Methods were carried out as described by Magnon, et al., Cancer Res, 65, 4353-61 (2005); incorporated herein by reference in its entirety.

Data set [3] deals with prostate cancer in cMyc mice. Nature of the data set: cMyc transgenic mouse model of prostate cancer (mPIN, invasive cancer zones). It counts as in vivo. The method, then: To investigate further the activity of G-CSF on tumor development using a genetic mouse model, transgenic mice expressing human cMyc under the ARR2/probasin promoter expressed specifically in the prostate (hereafter cMyc mice) were evaluated. This transgenic model leads to the complete penetrance of mouse prostatic intraepithelial neoplasia (mPIN) from postnatal week 2, progressing to invasive adenocarcinomas between 3 to 6 months of age (FIG. 2m). […] The development of invasive cancer was associated with a broad infiltration of NF-L+ neo-fibers by comparison with control animals (FIG. 2o). Thus, the increased tumor/normal epithelial cell proliferation following G-CSF administration is associated with (i.e., is correlated to) the development of new nerve fibers in the primary tumor. Accordingly, a method of treating cancer in a subject such as a human patient or non-human animal (e.g., non-human mammal) comprises administering a prophylactically or therapeutically effective amount of an inhibitor of NF-L+ neo-fibers. In some embodiments, the method comprises administering a prophylactically or therapeutically effective amount of an inhibitor of G-CSF.
as §3
To ascertain the role of sympathetic innervation in tumor initiation using a genetic model, the effect of chemical or surgical sympathectomy on prostate cancer in cMyc mice was evaluated. For this study, transgenic cMyc mice expressing human c-Myc under the ARR2/probasin promoter expressed specifically in the prostate (AAR2/Pbsn-MYC) were used. This transgenic model leads to the complete penetrance of mouse prostatic intraepithelial neoplasia (mPIN) from postnatal week 2, progressing to invasive adenocarcinomas between 3 to 6 months of age (FIG. 6e). To this end, mice were chemically sympathectomized one month prior to histological analyses.
Disease progression was monitored by bioluminescence scanner. […] Mice were sacrificed at week 10.

In a further data set the test system is healthy prostate. Nature of the data set: Healthy (tumor-free) prostate: nerve density, epithelial cell proliferation, apoptosis, Chrm1 expression. The settings on record: 6OHDA; TUNEL. Type of data set: in vivo, mouse. The method, then: as §1, §2
For apoptotic cell quantification, prostate sections were fixed with 4% paraformaldehyde (PFA) and stained with the Mebstain Apoptosis Kit according to manufacturer's recommendations (MBL International, Woburn, Mass.). Basement membranes were stained with a rat polyclonal anti-α2laminin antibody (Abcam) followed by Alexafluor647-conjugated goat anti-rat antibody (Molecular Probes).
Gene expression levels were analyzed from RNA extracted, using the TRIzol solution (Invitrogen, Carlsbad, Calif.), from PC-3, DU145, LNCaP cell lines or prostates from Balb/c nu/nu mice by quantitative real-time PCR, as described previously (Mendez-Ferrer, Nature, 452:442-447 (2008)).

Data set [4] can be described thus: Intravital microscopy hemodynamic measurements after carbachol. It counts as in vivo, mice. The method, then: Centerline red blood cell velocities were measured for 10 venules and 10 arterioles in two independent experiments. Wall shear rates (γ) were calculated based on Poiseuille's law for a Newtonian fluid, γ=2.12 (8Vmean)/Dv or Da, where Dv and Da are the venular or arterial diameters, the mean blood flow velocity (Vmean) was estimated as VRBC/1.6, and 2.12 is a median empirical mean, correction factor obtained from actual velocity profiles measured in microvessels in vivo. The blood flow rate was calculated from the formula: Vmean π D^2/4.

A short description of data set [5]: Echocardiography cardiac function after carbachol. It counts as in vivo. The settings on record: carbachol four consecutive days; n = 4 mice. The method, then:
For imaging, animals were anesthetized with a mixture of O2/1.5% isoflurane and then positioned ventral side up on the platform of the imaging system. ECG signal and respiratory rate were captured through the electrode pads on the advanced physiological monitoring unit and transmitted to the Vevo system for monitoring. Cardiac examinations were performed in two dimensional images using the parasternal long axis (PLAX) view in B-Mode with a 1MS550D 40 MHz probe. Two cineloops (300 frames/cineloop) were recorded per animal and then analyzed on two diastoles and two systoles per animal. The endocardial stroke volume and endocardial diastolic volume were determined to calculate the ejection fraction.

Where [6] appears, read: one hour after carbachol injection, n = 10 vessels.

Consider `NCCc1cc(O)c(O)cc1O` [6OHDA, 6-hydroxydopamine], for which, in the data set with PC-3luc cells [1] (6OHDA 100 and 250 mg/kg), the “TH+ neural fibers expressing NF-L (basal neural layer underneath prostate epithelium)” value is recorded as “specifically destroyed”. Besides, the “NF-L and NF-H positive fibers (parasympathetic) surrounding epithelial cells” value in the data set with PC-3luc cells [1] (6OHDA treatment) was “without affecting”. In addition, in the data set with PC-3luc cells [1] (6OHDA-induced sympathectomy), the metastases entry was “did not yield any detectable metastases”. Moreover, the “development of the primary tumors” value with PC-3luc cells [1] (6OHDA-induced sympathectomy, bioluminescence, TUNEL) is given as “dramatically prevented”. Further, the “direct cytotoxicity on tumor cells in vitro” value in the data set with PC-3luc cells [2] (6OHDA, cultured PC-3luc cells) was “no direct cytotoxicity”. Moreover, the “percentage of mPIN” value in data set [3] (denervation at 1 month of age) was “significantly reduced”. For the same molecule, the “prevalence of mPIN and invasive cancer zones” value in data set [3] (sympathectomy two months or more after birth) is given as “not significantly altered”. The “apoptosis of epithelial cells in the healthy prostate” value in the data set on healthy prostate is recorded as “triggered in vivo apoptosis”.
On to `C[N+](C)(C)CCOC(N)=O.[Cl-]` [carbachol, carbamoylcholine chloride], for which the “invasion of inguinal lymph nodes” value in the data set on PC-3luc cells [1] (carbachol alone, week 5) is recorded as “significantly enhanced”. Besides, the “proliferation of PC-3luc cells orthotopically implanted into the prostate (Ki67)” value in the data set on PC-3luc cells [1] (carbachol injections) was “induced the proliferation”. Moreover, in the data set with PC-3luc cells [1] (carbachol, ex vivo bioluminescence), the “tumor cell dissemination to distant organs compared to the control group” value is on record as “about 6 fold”. In the data set on PC-3luc cells [1] (carbachol, five weeks post-grafting), the “primary tumors (ex vivo bioluminescence)” value is reported as “depopulated”. The “proliferation of PC-3luc cells in vitro” value with PC-3luc cells [2] (carbachol) is given as “did not induce any proliferation”. The “incidence of mPIN” value in data set [3] (carbachol into three-month-old mice) is listed as “significantly increased”. Moreover, the “transition of neoplastic lesions to invasive carcinoma” value in data set [3] (carbachol, four months of age) is given as “accelerated”. Further, the vascular hemodynamics result in data set [4] (carbachol-treated mice) is listed as “not altered”. Further, in data set [4] (setting [6]), the “Arterioles Blood Flow rate” value was determined as 1737 ± 148 nL/s, the “Arterioles Diameter” value is reported as 38.1 ±0.8 μm, the “Arterioles RBC velocity” value is on record as 2.47 ± 0.22 mm/sec and the “Arterioles Wall shear rate (g)” value was 698 ± 69. Moreover, in data set [4] (setting [6]), the “Venules Blood Flow rate” value was 863 ± 128 nL/s, the “Venules Diameter” value came to 33.7 ± 1.3 μm, the “Venules RBC velocity” value turned out to be 1.48 ± 0.19 mm/sec and the “Venules Wall shear rate (g)” value was determined as 469 ± 59. Also, in data set [5], the Ejection fraction was found to be 65 ± 4%; the “Endocardial volume, diastole” value came out at 34.4 ± 7.9 µL; the “Endocardial volume, systole” value worked out at 11.7 ± 3.0 µL.
As for `CN1CCN(CC(=O)N2c3ccccc3C(=O)Nc3cccnc32)CC1` [pirenzepine], the distant metastases entry in the data set with PC-3luc cells [1] was “inhibited”. The “carbachol-induced lymph node invasion” value with PC-3luc cells [1] (week 5) was “inhibited”. In addition, the “carbachol-induced tumor cell proliferation (Ki67)” value in the data set on PC-3luc cells [1] (pirenzepine with carbachol) is “specifically blocked”. Moreover, the carbachol-induced malignancy progression entry in data set [3] (pirenzepine with carbachol) is “completely inhibited”.
In the case of `CN1[C@@H]2C[C@@H](OC(=O)[C@H](CO)c3ccccc3)C[C@H]1[C@@H]1O[C@@H]12` [scopolamine], the distant metastases result in the data set with PC-3luc cells [1] is on record as “inhibited”. Moreover, in the data set with PC-3luc cells [1] (week 5), the “carbachol-induced lymph node invasion” value is listed as “inhibited”.
